Experimental data reported in paper PMC8020607 (Computational Biology and Chemistry, 2021).

Biological target: T1, C5a (recombinant human C5a) (Homo sapiens, UniProt P01031)
T1 sequence (P01031 678-751 limits assumed): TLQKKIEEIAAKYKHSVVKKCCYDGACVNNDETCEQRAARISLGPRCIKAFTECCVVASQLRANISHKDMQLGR
Assay: intrinsic tyrosine fluorescence titration, non-linear fit
Assay type: binding

SMILES: C[C@]12C=CC(=O)C=C1CC[C@@H]1[C@@H]2C(=O)C[C@@]2(C)[C@H]1CC[C@]2(O)C(=O)CO [prednisone]
- Kd: ~380 nM
